Data reported in the Kinase Knowledgebase extract (Sharma et al. 2016).

Each compound was assayed against MAPK14 (human) (UniProt Q16539) (assay: Inhibition of MAPK14 by Human Whole Blood Assay). Conditions: blood cells.
MAPK14 (human), sequence (Q16539 whole entry, looked up): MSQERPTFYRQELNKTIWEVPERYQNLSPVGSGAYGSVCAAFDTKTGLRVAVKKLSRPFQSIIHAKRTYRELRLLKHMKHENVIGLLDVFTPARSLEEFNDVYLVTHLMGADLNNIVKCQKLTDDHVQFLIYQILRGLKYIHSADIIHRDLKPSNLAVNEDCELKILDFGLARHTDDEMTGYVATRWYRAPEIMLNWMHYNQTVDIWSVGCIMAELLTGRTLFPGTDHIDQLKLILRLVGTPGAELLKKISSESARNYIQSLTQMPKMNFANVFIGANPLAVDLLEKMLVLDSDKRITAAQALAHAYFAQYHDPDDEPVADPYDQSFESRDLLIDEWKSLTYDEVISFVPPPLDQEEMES

| Structure (SMILES) | IC50 [nM] |
| --- | --- |
| C[C@H](Nc1nccc(N(C(=O)c2ccc3ccccc3c2)C2CC(C)(C)NC(C)(C)C2)n1)c1ccccc1 | < 1000 |
| CCN(C(=O)c1ccc2ccccc2c1)c1ccnc(NC2CCNCC2)n1 | ≤ 1000 |
| CC(C)Nc1cc(N(Cc2ccc(F)cc2)C(=O)c2ccc3ccccc3c2)ccn1 | ≤ 1000 |
| C[C@H](Nc1nccc(N(CC2CCNCC2)C(=O)c2ccc3c(c2)CCC3)n1)c1ccccc1 | < 1000 |
| C[C@H](Nc1nccc(N(C)C(=O)c2ccc3ccccc3c2)n1)c1ccccc1 | ≤ 1000 |
| CC(C)Nc1nccc(N(CCC[C@@H](N)C(=O)N(C)C)C(=O)c2ccc3c(c2)CCO3)n1 | < 1000 |
| CCN(C(=O)c1cccc(C(Cl)Cl)c1)c1ccnc(N[C@@H](C)c2ccccc2)n1 | < 1000 |
| C[C@H](Nc1nccc(N(CC2CC2)C(=O)c2ccc3ccccc3c2)n1)c1ccccc1 | < 1000 |
| CC(C)N(C(=O)c1ccc2ccccc2c1)c1ccnc(N[C@@H](C)c2ccccc2)n1 | ≤ 1000 |
| C[C@H](Nc1nccc(N(CC2CCNCC2)C(=O)c2ccc3c(c2)CCO3)n1)c1ccccc1 | < 1000 |
| C[C@H](Nc1nccc(N(CC2CCNCC2)C(=O)c2ccc3c(c2)CCCC3)n1)c1ccccc1 | < 1000 |
| CC(C)Nc1nccc(N(CC2CCNCC2)C(=O)c2ccc3c(c2)CCO3)n1 | < 1000 |
| C[C@H](Nc1nccc(N(CC2CCNCC2)C(=O)c2ccc3ccccc3c2)n1)c1ccccc1 | < 1000 |
| O=C(c1ccc2c(c1)CCO2)N(CC1CCNCC1)c1ccnc(NC2CCCC2)n1 | < 1000 |
| CC(C)Nc1nccc(N(CCCCCN)C(=O)c2ccc3c(c2)CCO3)n1 | < 1000 |
| O=C(c1ccc2ccccc2c1)N(CC1CC1)c1ccnc(NC2CCC(O)CC2)n1 (stereo unspecified) | < 1000 |
| C[C@H](Nc1nccc(N(CC2CCN(C(N)=O)CC2)C(=O)c2ccc3c(c2)CCO3)n1)c1ccccc1 | < 1000 |
| CC(C)(C)CNc1nccc(N(CC2CCNCC2)C(=O)c2ccc3c(c2)CCO3)n1 | < 1000 |
| O=C(c1ccc2c(c1)CCO2)N(CC1CCNCC1)c1ccnc(NC2CC2)n1 | < 1000 |
| CCCN(C(=O)c1ccc2ccccc2c1)c1ccnc(N[C@@H](C)c2ccccc2)n1 | ≤ 1000 |

| Structure (SMILES) | IC50 [nM] |
| --- | --- |
| C[C@H](Nc1nccc(N(CC2CCNCC2)C(=O)c2cccc3ccccc23)n1)c1ccccc1 | < 1000 |
| CCN(C(=O)c1ccc2snnc2c1)c1ccnc(N[C@@H](C)c2ccccc2)n1 | ≤ 1000 |
| COCCCN(C(=O)c1ccc2ccccc2c1)c1ccnc(N[C@@H](C)c2ccccc2)n1 | < 1000 |
| CCN(C(=O)c1cccc(C)c1)c1ccnc(N[C@@H](C)c2ccccc2)n1 | < 1000 |
| O=C(c1ccc2ccccc2c1)N(CC1CCNCC1)c1ccnc(NC2CCOCC2)n1 | < 1000 |
| O=C(c1ccc2c(c1)CCO2)N(CC1CCNCC1)c1ccnc(NC2CCC[C@@H]2O)n1 (stereo partly specified) | < 1000 |
| CCCN(C(=O)c1ccc2ccccc2c1)c1ccnc(NC(C)C)n1 | ≤ 1000 |
| COC(=O)CN1CCC(CN(C(=O)c2ccc3c(c2)CCO3)c2ccnc(NC(C)C)n2)CC1 | < 1000 |
| CCN(C(=O)c1cccc(Cl)c1C)c1ccnc(N[C@@H](C)c2ccccc2)n1 | < 1000 |
| O=C(c1ccc2ccccc2c1)N(Cc1ccc(F)cc1)c1ccnc(NCCN2CCOCC2)c1 | ≤ 1000 |
| COCCN(C(=O)c1ccc2c(c1)CCC2)c1ccnc(N[C@@H](C)c2ccccc2)n1 | < 1000 |
| C[C@H](Nc1nccc(N(C(=O)c2ccc3ccccc3c2)C2CCN(C(=O)OC(C)(C)C)CC2)n1)c1ccccc1 | < 1000 |
| CCC(Nc1cc(N(Cc2ccc(F)cc2)C(=O)c2ccc3ccccc3c2)ccn1)c1ccccc1 (stereo unspecified) | ≤ 1000 |
| O=C(c1ccc2ccccc2c1)N(Cc1ccc(F)cc1)c1ccnc(NC(c2ccccc2)c2ccccc2)c1 | ≤ 1000 |
| C[C@H](Nc1nccc(N(Cc2ccc(F)cc2)C(=O)c2ccc3ccccc3c2)n1)c1ccccc1 | ≤ 1000 |
| CC(Nc1cc(N(Cc2ccc(F)cc2)C(=O)c2ccc3ccccc3c2)ccn1)c1ccc(F)cc1 (stereo unspecified) | ≤ 1000 |
| CCN(C(=O)c1ccc2ccccc2c1)c1ccnc(NC2CCC(N)CC2)n1 (stereo unspecified) | < 1000 |
| CCN(C(=O)c1scc2c1CCCC2)c1ccnc(N[C@@H](C)c2ccccc2)n1 | < 1000 |
| O=C(c1ccc2ccccc2c1)N(Cc1ccc(F)cc1)c1ccnc(NCc2ccccc2)c1 | ≤ 1000 |
| CCN(C(=O)c1cccc2c1OCCO2)c1ccnc(N[C@@H](C)c2ccccc2)n1 | < 1000 |

| Structure (SMILES) | IC50 [nM] |
| --- | --- |
| C[C@@H](Nc1cc(N(Cc2ccc(F)cc2)C(=O)c2ccc3ccccc3c2)ccn1)c1ccccc1 | ≤ 1000 |
| COCCN(C(=O)c1ccc2ccccc2c1)c1ccnc(N[C@@H](C)c2ccccc2)n1 | ≤ 1000 |
| C[C@H](Nc1nccc(N(C(=O)c2ccc3ccccc3c2)C2CCNCC2)n1)c1ccccc1 | ≤ 1000 |
| CCc1cccc(C(=O)N(CC)c2ccnc(N[C@@H](C)c3ccccc3)n2)c1 | < 1000 |
| COCCCNc1nccc(N(CC2CCNCC2)C(=O)c2ccc3c(c2)CCO3)n1 | < 1000 |
| CCN(C(=O)c1cccc2c1OCC2)c1ccnc(N[C@@H](C)c2ccccc2)n1 | < 1000 |
| CC(C)C(C)Nc1nccc(N(CC2CCNCC2)C(=O)c2ccc3c(c2)CCO3)n1 (stereo unspecified) | < 1000 |
| CC1CCCCC1Nc1nccc(N(CC2CCNCC2)C(=O)c2ccc3c(c2)CCO3)n1 (stereo unspecified) | < 1000 |
| C[C@H](Nc1nccc(N(CC2CCNCC2)C(=O)c2sc3ccccc3c2Cl)n1)c1ccccc1 | < 1000 |
| CC(C)Nc1nccc(N(C)C(=O)c2ccc3ccccc3c2)n1 | ≤ 1000 |
| CC(C)Nc1nccc(N(C(=O)c2ccc3ccccc3c2)C(C)C)n1 | ≤ 1000 |
| C[C@H](Nc1cc(N(Cc2ccc(F)cc2)C(=O)c2cccs2)ccn1)c1ccccc1 | ≤ 1000 |
| CNc1nccc(N(CC2CCNCC2)C(=O)c2ccc3ccccc3c2)n1 | < 1000 |
| C[C@H](Nc1cc(N(Cc2ccc(F)cc2)C(=O)c2ccc3ccccc3c2)ccn1)c1ccc2ccccc2c1 | ≤ 1000 |
| CCC(COC)Nc1nccc(N(CC2CCNCC2)C(=O)c2ccc3c(c2)CCO3)n1 (stereo unspecified) | < 1000 |
| C[C@H](Nc1nccc(N(CC2CCN(C3CCCC3)CC2)C(=O)c2ccc3c(c2)CCO3)n1)c1ccccc1 | < 1000 |
| CCC(C)Nc1nccc(N(CC2CCNCC2)C(=O)c2ccc3c(c2)CCO3)n1 (stereo unspecified) | < 1000 |
| CC(C)Nc1nccc(N(CC2CC2)C(=O)c2ccc3ccccc3c2)n1 | < 1000 |
| COCCNc1nccc(N(CC2CCNCC2)C(=O)c2ccc3c(c2)CCO3)n1 | < 1000 |
| O=C(c1ccc2ccccc2c1)N(Cc1ccc(F)cc1)c1ccnc(N[C@H]2CCCc3ccccc32)c1 | ≤ 1000 |

Other lines, results leading:

| IC50 [nM] | Structure (SMILES) |
| --- | --- |
| ≤ 1000 | C[C@H](Nc1cc(N(Cc2ccc(F)cc2)S(=O)(=O)c2ccc3ccccc3c2)ccn1)c1ccccc1 |
| < 1000 | CCN(C(=O)c1cccc(C2CC2)c1)c1ccnc(N[C@@H](C)c2ccccc2)n1 |
| ≤ 1000 | O=C(c1ccc2ccccc2c1)N(Cc1ccc(F)cc1)c1ccnc(NC2CCN(Cc3ccccc3)CC2)c1 |
| < 1000 | CCN(C(=O)c1ccc2c(c1)CCC2)c1ccnc(N[C@@H](C)c2ccccc2)n1 |
| < 1000 | COCC(C)Nc1nccc(N(CCCCN)C(=O)c2ccc3c(c2)CCO3)n1 (stereo unspecified) |
| ≤ 1000 | Nc1cc(N(Cc2ccc(F)cc2)C(=O)c2ccc3ccccc3c2)ccn1 |
| ≤ 1000 | CCN(C(=O)c1ccc2nccnc2c1)c1ccnc(N[C@@H](C)c2ccccc2)n1 |
| ≤ 1000 | C[C@H](Nc1nccc(N(Cc2cccnc2)C(=O)c2ccc3ccccc3c2)n1)c1ccccc1 |
| < 1000 | CCN(C(=O)c1cc(C)ccc1F)c1ccnc(N[C@@H](C)c2ccccc2)n1 |
| < 1000 | COCCN(C(=O)c1cccc(C)c1C)c1ccnc(N[C@@H](C)c2ccccc2)n1 |
| ≤ 1000 | O=C(c1ccc2ccccc2c1)N(Cc1ccc(F)cc1)c1ccnc(N[C@H]2CCc3ccccc32)c1 |
| < 1000 | CC(C)Nc1nccc(N(CCCCN2CCCC2)C(=O)c2ccc3c(c2)CCO3)n1 |
| ≤ 1000 | COc1ccc([C@H](C)Nc2cc(N(Cc3ccc(F)cc3)C(=O)c3ccc4ccccc4c3)ccn2)cc1 |
| ≤ 1000 | CC(C)Nc1nccc(N(Cc2ccc(F)cc2)C(=O)c2ccc3ccccc3c2)n1 |
| ≤ 1000 | CCN(C(=O)c1ccc2c(c1)CCO2)c1ccnc(N[C@@H](C)c2ccccc2)n1 |
| ≤ 1000 | C[C@H](Nc1cc(N(C)C(=O)N2CCc3ccccc3C2)ccn1)c1ccccc1 |
| ≤ 1000 | CCN(C(=O)c1ccc2ccccc2c1)c1ccnc(N[C@@H](C)c2ccccc2)n1 |
| ≤ 1000 | CC(=O)N(Cc1ccc(F)cc1)c1ccnc(N[C@@H](C)c2ccccc2)c1 |

| IC50 [nM] | Structure (SMILES) |
| --- | --- |
| < 1000 | CC(C)Nc1nccc(N(CC2CC[C@H](N)C2)C(=O)c2ccc3c(c2)CCO3)n1 (stereo partly specified) |
| < 1000 | CCN(C(=O)c1ccc2occc2c1)c1ccnc(N[C@@H](C)c2ccccc2)n1 |
| < 1000 | CC(C)Nc1nccc(N(CCCCN)C(=O)c2ccc3c(c2)CCO3)n1 |
| ≤ 1000 | CC(Nc1cc(N(Cc2ccc(F)cc2)C(=O)c2ccc3ccccc3c2)ccn1)c1ccc(Cl)cc1 (stereo unspecified) |
| ≤ 1000 | C[C@H](Nc1cc(N(Cc2ccccc2)C(=O)c2ccc3ccccc3c2)ccn1)c1ccccc1 |
| < 1000 | C[C@H](Nc1nccc(N(CC2CCNC2)C(=O)c2ccc3c(c2)CCO3)n1)c1ccccc1 (stereo partly specified) |
| ≤ 1000 | C[C@H](Nc1cc(N(Cc2ccc(F)cc2)C(=O)c2ccc3ccccc3c2)ncn1)c1ccccc1 |
| < 1000 | NCCCCN(C(=O)c1ccc2c(c1)CCO2)c1ccnc(NC2CCC(O)CC2)n1 (stereo unspecified) |
| ≤ 1000 | C[C@H](Nc1nccc(N(Cc2ccc(S(C)(=O)=O)cc2)C(=O)c2ccc3ccccc3c2)n1)c1ccccc1 |
| ≤ 1000 | COCCN(C(=O)c1ccc2ccccc2c1)c1ccnc(NC(C)C)n1 |
| < 1000 | C[C@H](Nc1nccc(N(CC2CC2)C(=O)c2ccc3c(c2)CCO3)n1)c1ccccc1 |
| < 1000 | CCN(C(=O)c1cccc(C)c1C)c1ccnc(N[C@@H](C)c2ccccc2)n1 |
| < 1000 | C[C@H](Nc1nccc(N(CCCCN)C(=O)c2ccc3c(c2)CCO3)n1)c1ccccc1 |
| < 1000 | CCN(C(=O)c1cccc(Cl)c1)c1ccnc(N[C@@H](C)c2ccccc2)n1 |
| ≤ 1000 | O=C(c1ccc2ccccc2c1)N(Cc1ccc(F)cc1)c1ccnc(NC2CCCCC2)c1 |
| ≤ 1000 | COC(=O)c1ccc(CNc2cc(N(Cc3ccc(F)cc3)C(=O)c3ccc4ccccc4c3)ccn2)cc1 |
| ≤ 1000 | C[C@H](Nc1cc(N(Cc2ccc(F)cc2)C(=O)c2ccccc2)ccn1)c1ccccc1 |
| < 1000 | O=C(c1ccc2c(c1)CCC2)N(CC1CC1)c1ccnc(NC2CCC(O)CC2)n1 (stereo unspecified) |
